Data: patent publication US7799809B2, “Carboxamide compounds and their use as calpain inhibitors” (Abbott GmbH & Co. KG, priority 2006, dated 2010)

Legend:
Type in all cases: biochemical
cathepsin B = molecular target: T1, cathepsin B (Homo sapiens, UniProt P07858); experiment: Cathepsin B enzyme inhibition in vitro (kinetic fluorescence assay); details: cathepsin B isolated from human liver vs calpain I
T1 construct: cathepsin B—isolated from human liver (Calbiochem #219362); purchased Calbiochem 219362; host or cells: human liver (tissue-derived)
Description: (§1) The following solutions and buffers were employed: • HBS (for 40 ml): 800 μl M HEPES; 2.16 ml 100 mM KCl; 4.8 ml 1M NaCl; 3.59 ml 5% glucose; 60 μl μM MgSO4; 400 μl 100 mM Na pyruvate, 28.19 ml water; pH 7.2-7.5. • lysis buffer (for 20 ml): 400 μl M Tris pH 8.2; 2.74 ml 1M NaCl; 520 μl 0.5M EDTA; 2 ml 10% triton X-100; 0.8 ml (=1:25) CompletePlus (1 tablet/2 ml H2O); 200 μl 100 mM Pefabloc; 13.34 ml water, pH 8.2. • TBST (10×) (for 1 l): 100 mM Tris (12.1 g); 1.5M NaCl (87 g); 1% Tween 20 (10 g), adjusted to pH 8. I Enzyme Inhibition In Vitro: • Testing for blockade of the corresponding enzymic activities was carried out by means of kinetic fluorescence assays (excitation 390 nm, emission 460 nm). • Apparent Ki values were calculated from the experimentally determined IC50 values by the Cheng-Prussoff relation assuming a reversible competitive enzyme inhibition. The Km values of the substrates used under the assay conditions indicated above were: 90 μM (Z-Phe-Arg-AMC, cathepsin B), 10 μM (Z-Gly-Pro-Arg-AMC, cathepsin K), 2 μM (Z-Phe-Arg-AMC, cathepsin L), and 30 μM (Z-Val-Val-Arg-AMC, cathepsin S). • The indicated Ki values are averages of the inhibition constants calculated on the basis of 2 to 4 independent dose-effect plots.
(§2) The following assays were used: • 1. Calpain I: • 20 nM calpain-I—isolated from human erythrocytes (Calbiochem #208713), 100 μM Suc-Leu-Tyr-AMC (Bachem #1-1355) as substrate in buffer with 62 mM imidazole, 0.3 mM CaCl2, 0.10% CHAPS, 0.05% BSA, 1 mM DTT at pH 7.3 and room temperature. • 2. Cathepsin B: • 0.25 nM cathepsin B—isolated from human liver (Calbiochem #219362), 100 μM Z-Phe-Arg-AMC (Bachem #I-1160) as substrate 50 mM MES, 2 mM EDTA, 0.05% Brij 35, 2.5 mM L-cysteine, pH 6.0, room temperature. • 3. Cathepsin K: • 3 nM cathepsin K—activated from recombinant human procathepsin K from E. coli (Calbiochem #342001), 10 μM Z-Gly-Pro-Arg-AMC (Biomol #P-142) as substrate in 50 mM MES, 2 mM EDTA, 0.05% Brij 35, 2.5 mM L-cysteine, pH 6.0, room temperature. • 4. Cathepsin L: • 1 nM cathepsin L—isolated from human liver (Calbiochem #219402), 2 μM Z-Phe-Arg-AMC (Bachem #1-1160) as substrate in 50 mM MES, 2 mM EDTA, 0.05% Brij 35, 2.5 mM L-cysteine, pH 6.0, room temperature. • 5. Cathepsin S: • 0.5 nM recombinant human cathepsin S from E. coli (Calbiochem #219343), 20 μM Z-Val-Val-Arg-AMC (Bachem #1-1540) as substrate in 50 mM MES, 2 mM EDTA, 0.05% Brij 35, 2.5 mM L-cysteine, pH 6.0, room temperature. • The results of the in vitro determination are indicated in Table 1. The following abbreviations are used in Table 1: • The “Calpain activity” column, ++ stands for a calpain Ki (Ki(calpain)) of ≦40 nM and + means: 40 nM<Ki(Calpain)≦100 nM. • The “Sel. cat. B” column indicates the Ki(cathepsin B)/Ki(calpain) ratio. In this connection, ++ means a Ki(cathepsin B)/Ki(calpain) ratio of ≧30 and + means 10≦Ki(cathepsin B)/Ki(calpain)<30. • The “Sel. cat. K” column indicates the Ki(cathepsin K)/Ki(calpain) ratio. In this connection, ++ means a Ki(cathepsin K)/Ki(calpain) ratio of ≧30 and + means 10≦Ki(cathepsin K)/Ki(calpain)<30. • The “Sel. cat. L” column indicates the Ki(cathepsin L)/Ki(calpain) ratio. In this connection, ++ means a Ki(cathepsin L)/Ki(calpain) ratio of ≧50 and + means 30≦Ki(cathepsin L)/Ki(calpain)<50. • The “Sel. cat. S” column indicates the Ki(cathepsin S)/Ki(calpain) ratio. In this connection, ++ means a Ki(cathepsin S)/Ki(calpain) ratio of ≧100 and + means 50≦Ki(cathepsin S)/Ki(calpain)<100.

cathepsin K = molecular target: T2, cathepsin K (Homo sapiens, UniProt P43235); experiment: Cathepsin K enzyme inhibition in vitro (kinetic fluorescence assay); details: cathepsin K activated from recombinant human procathepsin K vs calpain I
T2 construct: purchased Calbiochem 342001; host or cells: E. coli
T2 sequence (P43235 115-329): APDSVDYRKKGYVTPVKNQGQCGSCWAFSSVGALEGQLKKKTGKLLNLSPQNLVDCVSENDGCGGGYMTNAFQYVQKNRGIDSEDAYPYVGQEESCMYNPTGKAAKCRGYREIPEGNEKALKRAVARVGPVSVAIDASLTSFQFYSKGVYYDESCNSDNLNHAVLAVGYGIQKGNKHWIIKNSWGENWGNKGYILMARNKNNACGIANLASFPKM
Description: as §1, §2

cathepsin S = molecular target: T3, cathepsin S (Homo sapiens, UniProt P25774); experiment: Cathepsin S enzyme inhibition in vitro (kinetic fluorescence assay); details: recombinant human cathepsin S vs calpain I
T3 construct: purchased Calbiochem 219343; host or cells: E. coli
T3 sequence (P25774 115-331): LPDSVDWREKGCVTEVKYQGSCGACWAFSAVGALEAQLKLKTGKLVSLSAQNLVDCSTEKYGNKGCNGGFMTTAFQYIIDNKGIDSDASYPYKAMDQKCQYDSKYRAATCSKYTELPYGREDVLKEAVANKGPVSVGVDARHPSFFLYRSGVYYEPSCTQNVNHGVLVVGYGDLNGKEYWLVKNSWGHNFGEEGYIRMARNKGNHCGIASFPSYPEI
Method in brief: (§3)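 cat B 0.25 nM + Z-Phe-Arg-AMC 100 μM; cat L 1 nM + Z-Phe-Arg-AMC 2 μM; cat S 0.5 nM (E. coli-expressed) + Z-Val-Val-Arg-AMC 20 μM. 50 mM MES pH 6.0, 2.5 mM L-Cys, RT. Ex 390/em 460, kinetic; Ki app = Cheng-Prusoff from IC50, mean of 2–4 curves.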

cathepsin L = molecular target: T4, cathepsin L (Homo sapiens, UniProt P07711); experiment: Cathepsin L enzyme inhibition in vitro (kinetic fluorescence assay); details: cathepsin L isolated from human liver vs calpain I
T4 construct: cathepsin L—isolated from human liver (Calbiochem #219402); purchased Calbiochem 219402; host or cells: human liver (tissue-derived)
T4 sequence (P07711 114-333): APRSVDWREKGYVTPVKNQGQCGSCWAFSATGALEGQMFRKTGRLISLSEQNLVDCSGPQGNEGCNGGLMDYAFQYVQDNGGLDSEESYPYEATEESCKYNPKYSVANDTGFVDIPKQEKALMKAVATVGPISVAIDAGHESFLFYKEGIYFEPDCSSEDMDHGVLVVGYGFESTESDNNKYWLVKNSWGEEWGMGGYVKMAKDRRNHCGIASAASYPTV
Method in brief: as §3

| SMILES | Sel cat. B: Ki(cathepsin B)/Ki(calpain) ratio (cathepsin B) | Sel cat. K: Ki(cathepsin K)/Ki(calpain) ratio (cathepsin K) | Sel cat. S: Ki(cathepsin S)/Ki(calpain) ratio (cathepsin S) | Sel cat. L: Ki(cathepsin L)/Ki(calpain) ratio (cathepsin L) |
| --- | --- | --- | --- | --- |
| NC(=O)C(=O)C(Cc1ccccc1)NC(=O)c1cccnc1-n1ccc(-c2ccccc2F)n1 (centres unmarked) [Example 76, N-(3-Amino-1-benzyl-2,3-dioxopropyl)-2-[3-(2-fluorophenyl)-1H-pyrazol-1-yl]nicotinamide] | ++ (++ means a Ki(cathepsin B)/Ki(calpain) ratio of ≧30) | + (+ means 10≦Ki(cathepsin K)/Ki(calpain)<30) | ++ (++ means a Ki(cathepsin S)/Ki(calpain) ratio of ≧100) | ++ (++ means a Ki(cathepsin L)/Ki(calpain) ratio of ≧50) |
| COc1ccc(CC(NC(=O)c2cccnc2-n2ccc(-c3ccccc3)n2)C(=O)C(N)=O)cc1 (centres unmarked) [Example 80, N-[3-Amino-1-(4-methoxybenzyl)-2,3-dioxopropyl]-2-(3-phenyl-1H-pyrazol-1-yl)nicotinamide] | ++ (++ means a Ki(cathepsin B)/Ki(calpain) ratio of ≧30) | + (+ means 10≦Ki(cathepsin K)/Ki(calpain)<30) | ++ (++ means a Ki(cathepsin S)/Ki(calpain) ratio of ≧100) | ++ (++ means a Ki(cathepsin L)/Ki(calpain) ratio of ≧50) |
| COc1ccc(CC(NC(=O)c2cccnc2-n2ccc(-c3cccc4ccccc34)n2)C(=O)C(N)=O)cc1 (centres unmarked) [Example 135, N-(3-Amino-1-{[4-(methyloxy)phenyl]methyl}-2,3-dioxopropyl)-2-(3-naphthalen-1-yl-1H-pyrazol-1-yl)pyridine-3-carboxamide] | ++ (++ means a Ki(cathepsin B)/Ki(calpain) ratio of ≧30) | ++ (++ means a Ki(cathepsin K)/Ki(calpain) ratio of ≧30) | ++ (++ means a Ki(cathepsin S)/Ki(calpain) ratio of ≧100) | ++ (++ means a Ki(cathepsin L)/Ki(calpain) ratio of ≧50) |
| NC(=O)C(=O)C(Cc1ccccc1)NC(=O)c1cccnc1-n1cc2c(n1)-c1cccc(Cl)c1OC2 (centres unmarked) [Example 175, N-[3-Amino-2,3-dioxo-1-(phenylmethyl)propyl]-2-(6-chlorochromeno[4,3-c]pyrazol-2(4H)-yl)pyridine-3-carboxamide] | ++ (++ means a Ki(cathepsin B)/Ki(calpain) ratio of ≧30) | ++ (++ means a Ki(cathepsin K)/Ki(calpain) ratio of ≧30) | ++ (++ means a Ki(cathepsin S)/Ki(calpain) ratio of ≧100) | ++ (++ means a Ki(cathepsin L)/Ki(calpain) ratio of ≧50) |
| NC(=O)C(=O)C(Cc1ccccc1)NC(=O)c1cccnc1-n1ccc(-c2ccccn2)n1 (centres unmarked) [Example 35, N-(3-Amino-1-benzyl-2,3-dioxopropyl)-2-(3-pyridin-2-yl-1H-pyrazol-1-yl)nicotinamide] | + (+ means 10≦Ki(cathepsin B)/Ki(calpain)<30) | + (+ means 10≦Ki(cathepsin K)/Ki(calpain)<30) | ++ (++ means a Ki(cathepsin S)/Ki(calpain) ratio of ≧100) | ++ (++ means a Ki(cathepsin L)/Ki(calpain) ratio of ≧50) |
| CC(C)c1ccc(-c2ccn(-c3ncccc3C(=O)NC(Cc3ccccc3)C(=O)C(N)=O)n2)cc1 (centres unmarked) [Example 87, N-[3-Amino-2,3-dioxo-1-(phenylmethyl)propyl]-2-{3-[4-(1-methylethyl)phenyl]-1H-pyrazol-1-yl}pyridine-3-carboxamide] | ++ (++ means a Ki(cathepsin B)/Ki(calpain) ratio of ≧30) | ++ (++ means a Ki(cathepsin K)/Ki(calpain) ratio of ≧30) | ++ (++ means a Ki(cathepsin S)/Ki(calpain) ratio of ≧100) | ++ (++ means a Ki(cathepsin L)/Ki(calpain) ratio of ≧50) |
| NC(=O)C(=O)C(Cc1ccccc1)NC(=O)c1cccnc1-n1ccc(-c2c(F)cc(F)cc2F)n1 (centres unmarked) [Example 116, N-[3-Amino-2,3-dioxo-1-(phenylmethyl)propyl]-2-[3-(2,4,6-trifluorophenyl)-1H-pyrazol-1-yl]pyridine-3-carboxamide] | ++ (++ means a Ki(cathepsin B)/Ki(calpain) ratio of ≧30) | + (+ means 10≦Ki(cathepsin K)/Ki(calpain)<30) | ++ (++ means a Ki(cathepsin S)/Ki(calpain) ratio of ≧100) | ++ (++ means a Ki(cathepsin L)/Ki(calpain) ratio of ≧50) |
| COc1ccc2c(c1)OCc1cn(-c3ncccc3C(=O)NC(Cc3ccccc3)C(=O)C(N)=O)nc1-2 (centres unmarked) [Example 142, N-[3-Amino-2,3-dioxo-1-(phenylmethyl)propyl]-2-[7-(methyloxy)chromeno[4,3-c]pyrazol-2(4H)-yl]pyridine-3-carboxamide] | + (+ means 10≦Ki(cathepsin B)/Ki(calpain)<30) | + (+ means 10≦Ki(cathepsin K)/Ki(calpain)<30) | ++ (++ means a Ki(cathepsin S)/Ki(calpain) ratio of ≧100) | ++ (++ means a Ki(cathepsin L)/Ki(calpain) ratio of ≧50) |
| COc1ccc(OC)c(-c2ccn(-c3ncccc3C(=O)NC(Cc3ccccc3)C(=O)C(N)=O)n2)c1 (centres unmarked) [Example 151, N-[3-Amino-2,3-dioxo-1-(phenylmethyl)propyl]-2-{3-[2,5-bis(methyloxy)phenyl]-1H-pyrazol-1-yl}pyridine-3-carboxamide] | ++ (++ means a Ki(cathepsin B)/Ki(calpain) ratio of ≧30) | ++ (++ means a Ki(cathepsin K)/Ki(calpain) ratio of ≧30) | – | ++ (++ means a Ki(cathepsin L)/Ki(calpain) ratio of ≧50) |
